Measurements as given in patent US11649220B2 (DEMOTECH.INC., priority 2018, dated 2023).

How the values were obtained:
[1] = In vitro free radical inhibition test (DPPH method); settings: 8 μL of 20 mmol/L compound in 1 mL DPPH 0.059 mg/mL ethanol, 60 min dark, 517 nm; for inhibition rate %: DPPH; for Relative inhibition ability on free radicals: inhibition rate of AGI1067 on DPPH defined as 100
Summary of the method: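 DPPH in absolute ethanol (0.059 mg/mL) was mixed with test compound (20 mmol/L stock) and kept in the dark at room temperature for 60 minutes. Radical scavenging was read as loss of absorbance at 517 nm.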

[2] = test system: golden hamsters (60% high-fat food, STZ induced); experiment: Golden hamster disease model, animal model induction group (16-week-old group): blood biochemical indexes and body weight; format: in vivo; settings: for change rate of blood glucose %: 0.1 mL of 6.8 mg/mL DMSO solution + 0.25 mL whole milk by gavage once a day for 2 weeks; for change rate of body weight after deduction of DMSO blank %: DMSO blank deducted; for average body weight after administration/g / change of body weight/g / change rate of body weight %: after gavage once a day for 2 weeks; for HDL % / LDL % / total cholesterol % / triglyceride %: change rate, gavage once a day for 2 weeks
[3] = test system: golden hamsters (high-fat food, STZ induced); experiment: Golden hamster disease model, animal model induction group (24-week-old group): blood biochemical indexes and body weight; format: in vivo; settings: for change rate of blood glucode %: 0.1 mL of 6.8 mg/mL DMSO solution + 0.25 mL whole milk by gavage once a day for 2 weeks; for change rate of body weight after deduction of DMSO blank %: DMSO blank deducted; for change of body weight/g / change rate of body weight %: after gavage once a day for 2 weeks; for HDL % / LDL % / total cholesterol % / triglyceride %: change rate, gavage once a day for 2 weeks; for average body weight at 24 weeks/g: initial weight before administration
Source text: Animals and feed: 1) 8-week-old male golden hamsters with a body weight range of 100±5 g were selected; 2) 60% high-fat food; 3) 30% high-fat food; 4) general feed: NRC standard feed, containing 5% fat, total calories 4200 kcal/kg.
Animal model induction group (24-week-old group): After STZ induction, the golden hamsters were continuous fed with 30% high-fat food for 8 weeks, blood was taken from the ocular venous plexus, and the initial body weight, blood glucose concentration, total cholesterol, LDL-c, HDL-c and triglyceride were measured, and the golden hamsters were grouped in parallel according to animal biochemical indicators, 8 in each group; 5) Gavage of compounds: 0.1 mL of solution of compound (concentration: 6.8 mg/mL, DMSO solution) and 0.25 mL of whole milk were mixed evenly and administrated by gavage once a day for 2 weeks; 6) Blank control: 0.1 mL of DMSO and 0.25 mL of whole milk were mixed and administrated by gavage, once a day for 2 weeks; 6) Blank control: 0.1 mL of DMSO were mixed with 0.25 mL of whole milk, and administrated by gavage, once a day for 2 weeks; 7) 14 days later, blood was taken from the ocular venous plexus, and the body weight, blood glucose, total cholesterol, LDL-c, HDL-c and triglyceride were measured.
Instruments: Shimadzu UV-1750 spectrophotometer, clinical determination kit (Changchun Huili Biotechnology Co., Ltd.)
Determination of blood glucose: glucose oxidase method, kit
Determination of total cholesterol (COD-PAP method), kit
Determination of low density lipoprotein cholesterol (direct method), kit
Determination of triglyceride (GP-PAP method)
Determination of high density lipoprotein (direct method), kit

[4] = test system: Malondialdehyde (MDA) in serum; experiment: In vivo anti-lipid oxidation experiment (serum MDA, TBA method); design: inhibition rate %: concentration or dose not given beside the values; settings: MAD lipid peroxidation in vivo; for inhibition rate %: relative to solvent DMSO and Chow averages; for avarage value of OD: serum, TBA method, 532 nm
Summary of the method: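 Serum mixed with TBA-based reagents in acetic acid, heated at 95° C for 60 min, centrifuged, supernatant OD read at 532 nm. MDA calculated against 10 nmol/mL tetraethoxypropane standard after subtracting a per-sample control tube (50% glacial acetic acid replacing Reagent III); inhibition % normalised between Chow and DMSO-solvent groups.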

| SMILES | inhibition rate % [1] [%] | Relative inhibition ability on free radicals [1] | change rate of blood glucose % [2] [%] | change rate of body weight after deduction of DMSO blank % [2] [%] | average body weight after administration/g [2] [g] | change of body weight/g [2] [g] | change rate of body weight % [2] [%] | HDL % [2] [%] | LDL % [2] [%] | total cholesterol % [2] [%] | triglyceride % [2] [%] | change rate of blood glucode % [3] [%] | change rate of body weight after deduction of DMSO blank % [3] [%] | change of body weight/g [3] [g] | change rate of body weight % [3] [%] | HDL % [3] [%] | LDL % [3] [%] | total cholesterol % [3] [%] | triglyceride % [3] [%] | average body weight at 24 weeks/g [3] [g] | also measured |
| --- | --- | --- | --- | --- | --- | --- | --- | --- | --- | --- | --- | --- | --- | --- | --- | --- | --- | --- | --- | --- | --- |
| CC(C)(Sc1cc(C(C)(C)C)c(O)c(C(C)(C)C)c1)Sc1cc(C(C)(C)C)c(O)c(C(C)(C)CCOC(=O)CCCCC2CCSS2)c1 (stereo not drawn) [Compound 12, 3-(3-(tert-butyl)-5-((2-((3,5-di-tert-butyl-4-hydroxyphenyl)thio)propan-2-yl)thio)-2-hydroxyphenyl)-3-methylbutyl 5-(1,2-dithiolan-3-yl)pentanoate] | 36.5 | 83.6 | −17.0 | −1.6 | 135.4 | -2.3 | −1.6 | −3.4 | −35.8 | −30.7 | −43.0 | −29.0 | −6.6 | -17.3 | −14.2 | −72.1 | −32.7 | −0.3 | −51.7 | 122.4 | inhibition rate % [4]: 64.0%; avarage value of OD [4]: 6.82 |
| COC(=O)CNCCC(C)(C)c1cc(SC(C)(C)Sc2cc(C(C)(C)C)c(O)c(C(C)(C)C)c2)cc(C(C)(C)C)c1O [Compound 21] | 22.3 | 51.2 | −35.5 | −1.6 | 142.5 | 10.7 | 8.1 | 56.3 | 14.2 | −0.6 | −6.5 | −12.4 | −6.1 | -16.4 | −13.6 | −70.1 | −21.8 | 23.5 | −65.1 | 120.0 | inhibition rate % [4]: 53.3%; avarage value of OD [4]: 7.23 |
| CC(C)(Sc1cc(C(C)(C)C)c(O)c(C(C)(C)C)c1)Sc1cc(C(C)(C)C)c(OC(=O)CCC(=O)NCCS(=O)(=O)O)c(C(C)(C)C)c1 [Compound 26, 2-(4-(2,6-di-tert-butyl-4-((2-((3,5-di-tert-butyl-4-hydroxyphenyl)thio)propan-2-yl)thio)phenoxy)-4-oxobutanamido)ethane-1-sulfonic acid] | 16.3 | 37.4 | −16.8 | −2.9 | 145.2 | 9.4 | 6.9 | 108.8 | −6.2 | −9.0 | 3.0 | −14.2 | −6.4 | -18.1 | −13.9 | −67.5 | −23.0 | 30.5 | −5.1 | 130.1 | inhibition rate % [4]: 108.7%; avarage value of OD [4]: 5.10 |
